One data set concerns MCF7. Briefly: Cytotoxicity against human breast cancer MCF7 cell line expressing ER. In kind it is functional, cell-based.
A further data set has as its system MDA-MB-231. Briefly: Cytotoxicity against human breast cancer MDA-MB-231 cell line lacking ER. In kind it is functional, cell-based.
The nature of data set [1]: Cell survival against human breast cancer MCF7 cell line after 72h at 10 uM. In kind it is ADME, cell-based. To be noted: MCF7 breast cancer cells, read-out: Activity.
Data set [2] in a line: Cell survival against human breast cancer MDA-MB-231 cell line after 72h at 10 uM. In kind it is ADME, cell-based. Particulars: MDA-MB-231 breast cancer cells, read-out: Activity.

Take `C[C@]12CC[C@@H]3c4ccc(O)cc4CC[C@H]3[C@@H]1CC[C@@]2(O)C#Cc1cnc(O)nc1O`: the Activity entry in the data set with MCF7 and in the data set on MDA-MB-231 was “Not toxic” each time.

Regarding `CC/C(=C(\c1ccccc1)c1ccc(OCCN(C)C)cc1)c1ccccc1` [TAMOXIFEN], the viability at 72 h, 10 µM in data set [1] amounted to 72%.

Consider `C[C@]12CC[C@@H]3c4ccc(O)cc4CC[C@H]3[C@@H]1CC[C@@]2(O)C#Cc1cn([C@H]2C[C@H](O)[C@@H](CO)O2)c(=O)[nH]c1=O`, for which the Activity result in the data set with MCF7 and in the data set on MDA-MB-231 was “Not toxic” in each case.

Turning to `O=c1[nH]cc(F)c(=O)[nH]1` [FLUOROURACIL], the viability at 72 h, 10 µM in data set [2] amounted to 67%; in data set [1], 40%.

In the case of `C[C@]12CC[C@@H]3c4ccc(O)cc4CC[C@H]3[C@@H]1CC[C@@]2(O)C#Cc1nc2c(N)ncnc2n1[C@H]1O[C@@H](CO)[C@H](O)[C@@H]1O`, the Activity entry in the data set on MCF7 and in the data set on MDA-MB-231 was “Not toxic” each time.

As to `C[C@]12CC[C@@H]3c4ccc(O)cc4CC[C@H]3[C@@H]1CC[C@@]2(O)C#CCCCCC#Cc1cnc(O)nc1O`, the Activity entry in the data set on MCF7 and with MDA-MB-231 was “Not toxic” in each case.

As to `C[C@]12CC[C@@H]3c4ccc(O)cc4CC[C@H]3[C@@H]1CC[C@@]2(O)C#CCCCCC#Cc1cn([C@H]2C[C@H](O)[C@@H](CO)O2)c(=O)[nH]c1=O`, the Activity result with MCF7 and in the data set on MDA-MB-231 was “Not toxic” each time.

For the compound `Cn1cc(C#CCCCCC#C[C@]2(O)CC[C@H]3[C@@H]4CCc5cc(O)ccc5[C@H]4CC[C@@]32C)c(=O)n(C)c1=O`, the Activity result in the data set on MCF7 and in the data set on MDA-MB-231 was “Not toxic” throughout.

On to `Cn1cc(C#C[C@]2(O)CC[C@H]3[C@@H]4CCc5cc(O)ccc5[C@H]4CC[C@@]32C)c(=O)n(C)c1=O`, for which the Activity result in the data set on MCF7 and in the data set on MDA-MB-231 was “Not toxic” in each case.

As to `C[C@]12CC[C@@H]3c4ccc(O)cc4CC[C@H]3[C@@H]1CC[C@@H]2O`, the Activity entry in the data set on MCF7 and in the data set with MDA-MB-231 was “Not toxic” throughout.

In the case of `C[C@]12CC[C@@H]3c4ccc(O)cc4CC[C@H]3[C@@H]1CC[C@@]2(O)C#CCCCCC#Cc1cn([C@@H]2O[C@H](CO)[C@@H](O)[C@H]2O)c(=O)[nH]c1=O`, the Activity result in the data set with MCF7 and with MDA-MB-231 was “Not toxic” in each case.

The values are drawn from ChEMBL document CHEMBL1147763, “Synthesis and biological activities of nucleoside-estradiol conjugates” (Bioorg Med Chem Lett, 2006).
